“And” between values parts separate entries of the source, which are not always exact repeats. Identical values can stand only once.
Key:
Assay type in all cases: cell-based
[1] = tested on: AsPC-1 cells; test: expression of DNA repair genes by qRT-PCR, AsPC-1 cells; settings: 100 nM for 48 hr versus DMSO
Procedure: (§1) Tumors were homogenised in RLT buffer using a polytron homogenizer. Total RNA was isolated using RNAeasy kit (Qiagen, Germany) according to manufacturer's protocol. For qPT-PCR, RNA was reverse transcribed with iScript reverse transcriptase (BioRAD, Hercules, Calif., USA). Real time quantitative PCR (qPCR) was performed using SsoFast EvaGreen assay Supermix from BioRad (Hercules, Calif., USA). EPN1 and ACTB were used as housekeeping genes.
(§2) Inhibition of Wnt signalling reduces expression of DNA repair genes: HPAF-II, AsPC-1 or PaTu899S cells were treated with either DMSO or 100 nM compound of Formula (I) for 48 hr. The expression of the indicated genes was measured by qRT-PCR. FIGS. 14-16 illustrates the results.

[2] = tested on: CFPAC-1 cells; test: soft agar colony formation assay, CFPAC-1 cells; settings: for Colony count: duplicate wells; for IC50: CFPAC-1 cells, pre-determined by dose-response assay
Procedure: The IC50 and EC50 values for each combination partner (a) and (b) with the specific cell lines are determined from the response plot. A dose-response assay for each combination partner and the combination at different concentrations based on the IC50 values of each combination partner was performed. Computed EC50-EC95 values were then generated by a software (as disclosed herein) based on the drug concentration and the respective colony growth numbers.
6. Cell lines used and number of cells seeded per well
(1) Base Layer—0.6% Agar per 300 μL per well.
Microwave the agar for 1-2 min so that it is completely melted. Add 5.4 ml of the melted agar into 21.6 ml of pre-warmed media (All media and agar preparation is made in excess for 2.5 plates). Aliquot 300 μl of the suspension into each well, avoiding the first and last columns of the plates. Fill the first and last columns of wells with 500 μl of sterile water or phosphate buffered saline. Incubate the plates in 37° C. incubator for 45 min-1 hr to allow agar to solidify.
(2) Middle Layer— 0.3% Agar plus corresponding number of cells per well
Trypsinize the adherent cells and suspend them in 5 ml of media. Determine the number of cells in the suspension and calculate the volume of cell suspension required for seeding. Mix the agar and media together first, excluding the volume of cell suspension. Add the cell suspension last into the mixture. Mix well and aliquot 250 μl into each well containing the base layer. Incubate the plates in a 37° C. incubator for 1-1.5 hrs to allow the agar to solidify.
Prepare the required concentration of compounds based on the IC50 values of each drug.
(Pre-determine the IC50 values for each drug with the corresponding cell-line using a dose-response assay)
Row A& B: Aliquot 250 μl of diluted Drug A per well
Row C&D: Aliquot 250 μl of diluted Drug B per well
Row E& F: Aliquot 250 μl of diluted Drug A and B mixed at 1:1 ratio for each well
Assay Results Analysis Method • 1. Score the colonies after 2 to 3 weeks depending on the colony forming status for different cell line. • 2. Before scoring the colonies, add 35 μl MTT (5 mg/ml) to the wells with cells and incubate at 37° C. for 2-3 hrs depending on the intensity of colour development. • 3. Once the colonies are stained, count the total number of colonies formed using the Oxford Optronix GelCount® instrument. • 4. Average the total number of colonies obtained for each drug dose point and represent it as a fraction over the control. This represents the fraction of colony growth. […] Incorporate the fraction of inhibition and the corresponding dose values into the Chou Talalay Software available online (http://www.combosyn.com/) to obtain the combination index values. • 6. The combination index values will give an indication as to whether the combined drugs are synergistic, antagonistic or additive in the treated cells, as shown in Table 2 below.
FIG. 8 illustrates a dose-response assay plate containing CFPAC-1 cells (Test 1) after testing compounds at different concentrations based on the IC50 values of each compound. CFPAC-1 is a cell line established from cystic fibrosis and pancreatic ductal adenocarcinoma.

[3] = tested on: HPAF-II cells; test: expression of DNA repair genes by qRT-PCR, HPAF-II cells; settings: 100 nM for 48 hr versus DMSO
Procedure: as §1, §2

[4] = tested on: PaTu899S cells; test: expression of DNA repair genes by qRT-PCR, PaTu899S cells; settings: 100 nM for 48 hr versus DMSO
Procedure: as §1, §2

[5] = CFPAC-1, Test 1, 0.25x IC50: dose Olaparib 1.5625, Ex 1 0.00675, combination both 1:1
[6] = CFPAC-1, Test 1, 0.5x IC50: dose Olaparib 3.125, Ex 1 0.0135, combination both 1:1
[7] = CFPAC-1, Test 1, 1x IC50: dose Olaparib 6.25, Ex 1 0.027, combination both 1:1
[8] = CFPAC-1, Test 1, 2x IC50: dose Olaparib 12.5, Ex 1 0.054, combination both 1:1
[9] = CFPAC-1, Test 1, 4x IC50: dose Olaparib 25, Ex 1 0.108, combination both 1:1
[10] = CFPAC-1, Test 2, 0.25x IC50: dose Olaparib 1.5625, Ex 1 0.00675, combination both 1:1
[11] = CFPAC-1, Test 2, 1x IC50: dose Olaparib 6.25, Ex 1 0.027, combination both 1:1
[12] = CFPAC-1, Test 2, 2x IC50: dose Olaparib 12.5, Ex 1 0.054, combination both 1:1
[13] = CFPAC-1, Test 2, 4x IC50: dose Olaparib 25, Ex 1 0.108, combination both 1:1

Q: How did the “expression of DNA repair genes BRCA1, BRCA2, FANCD2, FANCG, RAD51 and XRCC3” value (from here on “expression of DNA repair genes BRCA1”) [1] turn out when `Cn1c(=O)c2c(ncn2CC(=O)Nc2ccc(-c3ccccc3)nn2)n(C)c1=O` [Ex 1, 2-(1,3-dimethyl-2,6-dioxo-2,3-dihydro-1H-purin-7 (6H)-yl)-N-(6-phenylpyridazin-3-yl)acetamide] was run?
A: inhibited the expression of DNA repair genes

Q: What about the Colony count [2, 5] of the same compound?
A: 441 and 464

Q: What about the Colony count [2, 6] of the same compound?
A: 445 and 505

Q: What about the Colony count [2, 7] of the same compound?
A: 386 and 412

Q: And the Colony count [2, 8]?
A: 346 and 322

Q: What about the Colony count [2, 9] of the same compound?
A: 315 and 320

Q: What about the Colony count [2, 10] of the same compound?
A: 676 and 624

Q: And the Colony count [2, 11]?
A: 649 and 563

Q: And the Colony count [2, 12]?
A: 581 and 588

Q: And the Colony count [2, 13]?
A: 536 and 527

Q: What about the IC50 [2] of the same compound?
A: 0.027 µM

Q: What about the “expression of DNA repair genes BRCA1” value [3] of the same compound?
A: inhibited the expression of DNA repair genes

Q: And the “expression of DNA repair genes BRCA1” value [4]?
A: inhibited the expression of DNA repair genes

Q: Which Colony count [2, 5] does the source give for `O=C(c1cc(Cc2n[nH]c(=O)c3ccccc23)ccc1F)N1CCN(C(=O)C2CC2)CC1` [Olaparib, reference compound] here?
A: 441 and 429

Q: What about the Colony count [2, 6] of the same compound?
A: 314 and 309

Q: What about the Colony count [2, 7] of the same compound?
A: 259 and 289

Q: And the Colony count [2, 8]?
A: 194 and 196

Q: What about the Colony count [2, 9] of the same compound?
A: 80 and 97

Q: What about the Colony count [2, 10] of the same compound?
A: 586 and 545

Q: What about the Colony count ([2]; CFPAC-1, Test 2, 0.5x IC50: dose Olaparib 3.125, Ex 1 0.0135, combination both 1:1) of the same compound?
A: 439 and 442

Q: And the Colony count [2, 11]?
A: 328 and 371

Q: What about the Colony count [2, 12] of the same compound?
A: 254 and 255

Q: And the Colony count [2, 13]?
A: 116 and 111

Q: And the IC50 ([2]; Homo sapiens)?
A: 6.25 µM
